Data reported in US20160113931A1, “Method of treating and/or preventing neurodegenerative diseases” (University of Macau, priority 2014, published 2016).

What was measured:
[1] = system: oligodendroglial progenitor cells (OPCs); assay: OPC proliferation (EdU incorporation assay and Ki67 immunostaining); format: cell-based, rat; details: 2 days
Protocol: FIGS. 10A, 10B and 10C show the effects of BHDPC in oligodendroglial progenitor cells (OPCs) proliferation. OPCs were incubated with the drugs at indicated concentrations in proliferation medium for 2 days. (FIG. 10A) The cell viability was measured by MTT assay.
Purified OPC cultures were prepared as described. In brief, primary rat mixed glial cell cultures were isolated from whole brains of postnatal day (P) 2 rats, dissociated into single cells, and cultured into poly-D-lysine (PDL) coated T75 tissue culture flasks. Plating medium consisted of Dulbecco's modified Eagle's medium (DMEM, Invitrogen, Carlsbad, Calif.) supplemented with 10% fetal bovine serum (FBS; Invitrogen, Carlsbad, Calif.), […]. Tissue cultures were maintained at 37° C. in a humidified 5% CO2 incubator, and medium was exchanged every 3 days. Once confluent (after 10-15 days), microglia were separated by mechanical shaking of flasks on a rotary shaker for […] at 250 rpm and removed. […]
OPC was incubated with BHDPC or 0.1% DMSO in the proliferation medium for two days. […] Photographs were captured by fluorescence microscope.
To test the effect of BHDPC on primary OPC culture, OPCs were treated with BHDPC for 48 h and the cell viability was determined using MTT assay. […]

ROCK2 = ROCK2 (Homo sapiens, UniProt O75116); assay: Kinase activity assay ROCK2; format: biochemical; details: read-out: ROCK 2 IC50
ROCK2, sequence (O75116 whole entry, species assumed, canonical isoform): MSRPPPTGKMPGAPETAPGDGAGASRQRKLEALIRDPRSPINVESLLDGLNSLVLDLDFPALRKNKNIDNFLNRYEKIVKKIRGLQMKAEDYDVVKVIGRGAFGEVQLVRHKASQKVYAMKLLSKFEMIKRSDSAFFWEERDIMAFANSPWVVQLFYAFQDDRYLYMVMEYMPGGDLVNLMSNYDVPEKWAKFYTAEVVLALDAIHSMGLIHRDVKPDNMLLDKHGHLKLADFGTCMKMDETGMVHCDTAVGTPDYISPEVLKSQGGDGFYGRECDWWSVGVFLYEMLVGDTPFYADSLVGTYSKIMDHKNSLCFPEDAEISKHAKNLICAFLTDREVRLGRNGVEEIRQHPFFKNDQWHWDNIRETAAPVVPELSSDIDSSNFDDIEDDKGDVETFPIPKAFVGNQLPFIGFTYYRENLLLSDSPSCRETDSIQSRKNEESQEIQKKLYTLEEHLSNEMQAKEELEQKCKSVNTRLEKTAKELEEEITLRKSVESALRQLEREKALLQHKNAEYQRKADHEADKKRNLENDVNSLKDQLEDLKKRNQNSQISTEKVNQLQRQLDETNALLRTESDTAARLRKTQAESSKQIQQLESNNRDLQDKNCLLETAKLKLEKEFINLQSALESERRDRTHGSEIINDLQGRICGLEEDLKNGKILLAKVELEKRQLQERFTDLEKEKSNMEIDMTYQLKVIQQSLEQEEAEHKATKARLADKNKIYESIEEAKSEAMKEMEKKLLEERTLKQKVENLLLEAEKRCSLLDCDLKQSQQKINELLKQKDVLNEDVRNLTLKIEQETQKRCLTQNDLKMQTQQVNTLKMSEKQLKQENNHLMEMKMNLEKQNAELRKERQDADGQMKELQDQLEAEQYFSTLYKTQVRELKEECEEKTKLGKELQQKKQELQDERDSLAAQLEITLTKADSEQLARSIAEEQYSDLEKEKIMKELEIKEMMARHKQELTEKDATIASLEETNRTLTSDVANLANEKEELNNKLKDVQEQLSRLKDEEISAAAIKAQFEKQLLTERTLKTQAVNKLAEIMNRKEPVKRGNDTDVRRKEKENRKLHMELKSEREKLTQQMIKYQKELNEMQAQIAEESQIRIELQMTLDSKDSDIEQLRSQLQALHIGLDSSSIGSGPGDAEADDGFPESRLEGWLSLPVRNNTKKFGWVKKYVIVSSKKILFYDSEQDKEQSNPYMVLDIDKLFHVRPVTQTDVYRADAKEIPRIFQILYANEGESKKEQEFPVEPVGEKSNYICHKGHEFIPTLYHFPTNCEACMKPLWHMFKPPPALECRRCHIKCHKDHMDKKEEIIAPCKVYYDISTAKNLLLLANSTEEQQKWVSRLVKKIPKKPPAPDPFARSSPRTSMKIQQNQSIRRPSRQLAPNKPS
Description: ROCK has two isoforms (ROCK1 and ROCK2) sharing the same downstream proteins. Bioassay and molecular docking are used to compare the characteristics of BHDPC on ROCK. […] Through molecular docking and molecular dynamics simulation, the interaction between the inhibitor and ROCK1 was shown in FIG. 17.

SH-SY5Y cells = assay: MPP+-induced cytotoxicity in SH-SY5Y cells (MTT assay); format: cell-based, human; details: 30 μM, 2 h pre-treatment, 1 mM MPP+ 24 h
Protocol: Cells were pre-treated with BHDPC (3, 10 and 30 μM) for 2 h and then incubated with or without 1 mM MPP^+ for further 24 h. Cell viability was measured by the MTT assay.
The human neuroblastoma SH-SY5Y cells were purchased from America Tissue Type Collection. The cells were maintained in DMEM medium supplemented with 10% fetal bovine serum and penicillin/streptomycin (100 U/mL; 100 μg/mL) in a 37° C., 5% CO2 incubator. All experiments were carried out 48 hours after the cells were seeded.
The percentage of surviving cells was estimated by determining the activity of mitochondrial dehydrogenases with 3(4,5-dimethylthiazol-2-yl)-2,5-diphenyltetrazolium bromide (MTT) assay. After drug treatment, cells were incubated at 37° C. for 4 h in 0.5 mg/mL MTT solution. The medium was then removed, and 100 μL of DMSO was added to each well to dissolve the violet formazan crystals. The absorbance of the samples was measured at a wavelength of 570 nm with 655 nm as a reference wavelength. All values were normalized to the control groups.
To test the neuroprotective effects of BHDPC, SH-SY5Y cells were pre-treated with gradually increasing concentrations of BHDPC for 2 h and then treated with 1 mM MPP^+ for 24 hours. Cell viability was measured using the MTT assay.

SMILES: COc1cc(C2C(C(=O)OCc3ccccc3)=C(C)Nc3nnnn32)ccc1O (stereo not shown) [BHDPC, benzyl 7-(4-hydroxy-3-methoxyphenyl)-5-methyl-4,7-dihydrotetrazolo[1,5-a]pyrimidine-6-carboxylate]
- ratio of EdU+/oligo2 cells ([1]; 30 μM): increased
- ratio of Ki67+/oligo2 cells [1]: increased
- IC50 (ROCK2): 408 µM
- MPP+-induced neuronal death (cell viability, MTT) (SH-SY5Y cells): prevented MPP^+-induced dopaminergic neuronal death
